Reference: US11926845B2, “Cell culture method and automatic cell culture apparatus” (Hitachi, Ltd., priority 2020, dated 2024)

Assays:
[1] = system: human iPS cells (201B7 strain); assay: hCG secretion into culture supernatant (ELISA) of 201B7 strain cultured on coated planar mesh; assay type: cell-based
Protocol: In the present example, the human iPS cells (201B7 strain) were cultured by using a culture substrate in which the planar mesh made of nickel was coated with parylene or Au, and an effect of the ROCK inhibitor on cell differentiation was investigated.
A cell culture substrate was prepared in the same procedure as in the first example. The i-Matrix (Nippi Inc.) adjusted to a concentration of 50 ng/μl as a scaffold material of cells was added so as to cover the mesh and the mixture was treated at 4° C. for 3 days. Thereafter, after i-Matrix was removed, and the washing was performed with an Essential 8 medium (GIBCO Co.), the human iPS cells (201B7 strain) was adjusted in the Essential 8 medium so as to be 1×10^5/ml, and an iPS cell suspension containing 10 μM of the ROCK inhibitor (Y-27632, Wako Pure Chemical Co.) was added on the mesh in the same manner as the scaffold material, and the cells were incubated at 37° C. in the cell culture apparatus adjusted to the CO2 concentration of 5%.
After 24 hours from seeding, a total amount of iPS cell suspension was removed and replaced with a new Essential 8 medium, so that the ROCK inhibitor was completely removed once. Then, every 4 days, half the amount of culture supernatant was recovered, and the amount of culture supernatant was maintained by adding a new Essential 8 medium in an amount equal to a removed amount. The ROCK inhibitor (Y-27632, Wako Pure Chemical Co.) was added to a part of the medium of the cell culture substrate on which the 201B7 strain is seeded from Day 9 of culturing or Day 13 of the culturing so that the final concentration of the ROCK inhibitor was 20 μM, and the culturing was performed for 3 weeks.
(§1) A secretion amount of hCG, which is one of trophoblast differentiation markers, was quantified by using the recovered culture supernatant. For the quantification, a value of OD450 was detected with an absorbance plate reader (Corona Electric Co. Ltd.) by using a Human hCG ELISA Kit (Abcam Co.). Details of an ELISA reaction and a measurement method followed a manual of a kit.

253G1 strain = assay: hCG secretion into culture supernatant (ELISA) of 253G1 strain cultured on coated planar mesh; assay type: cell-based, human; settings: for secretion amount of hCG, increase as compared with the case where the ROCK inhibitor was not added / secretion amount of hCG, course after the increase: 253G1 strain; for secretion amount of hCG, course after the increase: after Day 17
Protocol: Preparation of the cell culture substrate and seeding of the iPS cells were carried out in the same manner as in the second example. After 24 hours from seeding, a total amount of iPS cell suspension was removed and replaced with a new Essential 8 medium, so that the ROCK inhibitor was completely removed once. Then, every 4 days, half the amount of the culture supernatant was recovered, and the amount of culture supernatant was maintained by adding a new Essential 8 medium in an amount equal to a removed amount. The ROCK inhibitor (Y-27632, Wako Pure Chemical Co.) was added to a part of the medium of the cell culture substrate on which the 253G1 strain is seeded from Day 9 of culturing or Day 13 of the culturing so that a final concentration was 20 μM, and the culturing was performed for 3 weeks.
as §1, with “The secretion” for “A secretion”, “quantification, the” for “quantification, a”, “detected by” for “detected with”, “Electric Co.)” for “Electric Co. Ltd.)”

C[C@@H](N)[C@H]1CC[C@H](C(=O)Nc2ccncc2)CC1 [ROCK inhibitor, Y-27632]
differentiation into trophoblast ([1]; 201B7 strain on planar mesh coated with parylene or Au, re-addition of the ROCK inhibitor): promoted
secretion amount of hCG, increase as compared with the case where the ROCK inhibitor was not added ([1]; 201B7 strain, mesh coated with Au, 20 μM added from Day 9 of culturing, on Day 17): about twice
secretion amount of hCG, increase as compared with the case where the ROCK inhibitor was not added ([1]; 201B7 strain, mesh coated with Au, 20 μM added from Day 9 of culturing, on Day 21): four times
secretion amount of hCG, course after the increase ([1]; 201B7 strain, mesh coated with Au, 20 μM added from Day 13 of culturing, after Day 17): the secretion amount was maintained thereafter
secretion amount of hCG, increase as compared with the case where the ROCK inhibitor was not added ([1]; 201B7 strain, mesh coated with Au, 20 μM added from Day 13 of culturing, on Day 17): about three times
secretion amount of hCG, course after the increase ([1]; 201B7 strain, mesh coated with parylene, 20 μM added from Day 9 of culturing, after Day 13): the secretion amount was maintained thereafter
secretion amount of hCG, increase as compared with a case where the ROCK inhibitor was not added ([1]; 201B7 strain, mesh coated with parylene, 20 μM added from Day 9 of culturing, on Day 13): about twice
secretion amount of hCG, increase as compared with the case where the ROCK inhibitor was not added ([1]; 201B7 strain, mesh coated with parylene, 20 μM added from Day 13 of culturing, on Day 17): about twice
secretion amount of hCG, increase as compared with the case where the ROCK inhibitor was not added ([1]; 201B7 strain, mesh coated with parylene, 20 μM added from Day 13 of culturing, on Day 21): about three times
differentiation into trophoblast cells (253G1 strain; 253G1 strain on planar mesh coated with parylene or Au, addition of the ROCK inhibitor): promoted
secretion amount of hCG, increase as compared with the case where the ROCK inhibitor was not added (253G1 strain; mesh coated with Au, 20 μM added from Day 9 of culturing, on Day 17): about twice
secretion amount of hCG, increase as compared with the case where the ROCK inhibitor was not added (253G1 strain; mesh coated with Au, 20 μM added from Day 9 of culturing, on Day 21): about three times
secretion amount of hCG, course after the increase (253G1 strain; mesh coated with Au, 20 μM added from Day 13 of culturing): the secretion amount was maintained thereafter
secretion amount of hCG, increase as compared with the case where the ROCK inhibitor was not added (253G1 strain; mesh coated with Au, 20 μM added from Day 13 of culturing, on Day 17): five times
secretion amount of hCG, course after the increase (253G1 strain; mesh coated with parylene, 20 μM added from Day 9 of culturing): the secretion amount was maintained thereafter
secretion amount of hCG, increase as compared with the case where the ROCK inhibitor was not added (253G1 strain; mesh coated with parylene, 20 μM added from Day 9 of culturing, on Day 17): about ten times
secretion amount of hCG, increase as compared with the case where the ROCK inhibitor was not added (253G1 strain; mesh coated with parylene, 20 μM added from Day 13 of culturing, on Day 21): three times
